Converted amounts (≈) assume the structure as drawn. Where a SMILES comes first, the peptide text is derived from it. Bridges are numbered along the chain shown (N, C = ends). Where no end group is shown, it is not given here.
Experiments:
[1] = system: Pseudomonas aeruginosa ATCC 27853; experiment: Antimicrobial assay, MIC by broth microdilution; type: cell-based; details: ATCC27853, highest test concentration 128 μg/mL, read-out: minimum inhibitory concentration (MIC), Pseudomonas aeruginosa
Protocol: (§1) Ranatuerin-2P-OG1 synthesis was performed by Royobiotech Co., Ltd. (Shanghai, China) using solid-phase peptide synthesis. The crude peptide was purified by RP-HPLC and its purity was confirmed to exceed 90% via ESI-MS analysis. Antimicrobial assays with various microbial strains were conducted, including gram-positive Staphylococcus aureus ATCC 29213 and its methicillin-resistant variant (MRSA) CIB 8546, Enterococcus faecalis ATCC 29212, gram-negative Pseudomonas aeruginosa ATCC 27853 and Escherichia coli ATCC 25922, and fungal Candida albicans CCMCC(F) 98001. Bacterial cultures were maintained in cation-adjusted Mueller-Hinton broth (MHB) at 35°C for 16-20 h, whereas fungal cultures were grown in Sabouraud dextrose broth (SDB) at 28°C for 48 h.

[2] = system: Enterococcus faecalis ATCC 29212; experiment: microbe, parasite or virus in culture; type: cell-based
Protocol: as §1

[3] = system: methicillin-resistant Staphylococcus aureus (MRSA) CIB 8546; experiment: microbe, parasite or virus in culture; type: cell-based
Protocol: as §1

[4] = system: Staphylococcus aureus ATCC 29213; experiment: microbe, parasite or virus in culture; type: cell-based
Protocol: as §1

[5] = system: Escherichia coli ATCC 25922; experiment: microbe, parasite or virus in culture; type: cell-based
Protocol: as §1

[6] = system: Candida albicans CCMCC(F) 98001; type: cell-based
Protocol: as §1

trypsin = details: previously reported ESPs in Odorrana grahami, Table S1; cited from earlier work
From the text: (§2) Supplement 12915_2025_2463_MOESM1_ESM.xlsx, sheet "Table S1" | column: Previously reported ESPs in Odorrana grahami

skin wound = details: previously reported ESPs in Odorrana grahami, Table S1; cited from earlier work
From the text: Supplement 12915_2025_2463_MOESM1_ESM.xlsx, sheet "Table S1" | column: Previously reported ESPs in Odorrana grahami || The cathelicidin family: In this study, we report two new ESPs, OG-CATH1 and OG-CATH2, with OG-CATH1 corresponding to two precursor proteins. These peptides are similar to OL-CATH1 and OL-CATH2 from the skin of O. livida, and Cathelicidin-RC1 from frog L. catesbeianus (Fig. S12). However, they show low similarity (20.3%, data not shown) to Cathelicidin-OA1 from the skin of O. andersonii.

NO release = details: previously reported ESPs in Odorrana grahami, Table S1; cited from earlier work
From the text: as §2

[7] = previously reported ESPs in Odorrana grahami, Table S1; cited from earlier work
From the text: as §2

HaCat cells = system: HaCat cells; set-up: method as in PMID 18455266; details: mechanically injured HaCat cells; enhancing the expression of CXCL8, TGFβ, COX-2, VEGF and TLR2; ref [94]; cited from earlier work

CC1(C)S[C@@H]2[C@H](NC(=O)[C@H](N)c3ccccc3)C(=O)N2[C@H]1C(=O)O [Ampicillin, reference compound]
MIC [1]: > 128 µg/mL | MIC ([2]; ATCC29212, broth microdilution, Enterococcus faecalis ATCC 29212, read-out: minimum inhibitory concentration (MIC), Enterococcus faecalis): 2 µg/mL (≈ 5.72 µM) | MIC ([3]; Staphylococcus aureus, broth microdilution, MRSA CIB 8546, read-out: minimum inhibitory concentration (MIC), MRSA): 128 µg/mL (≈ 366 µM) | MIC ([4]; ATCC29213, broth microdilution, Staphylococcus aureus ATCC 29213, read-out: minimum inhibitory concentration (MIC), Staphylococcus aureus): 1 µg/mL (≈ 2.86 µM) | MIC ([5]; ATCC25922, broth microdilution, Escherichia coli ATCC 25922, read-out: minimum inhibitory concentration (MIC), Escherichia coli): 8 µg/mL (≈ 22.9 µM)

CC[C@H](C)[C@H](NC(=O)[C@H](CCCCN)NC(=O)[C@H](CC(=O)O)NC(=O)[C@H](CCCCN)NC(=O)[C@@H](NC(=O)[C@@H](NC(=O)CNC(=O)[C@H](C)NC(=O)[C@@H](NC(=O)[C@H](CC(N)=O)NC(=O)[C@@H](NC(=O)[C@H](CC(C)C)NC(=O)[C@@H](NC(=O)[C@H](CC(N)=O)NC(=O)[C@H](CC(C)C)NC(=O)[C@@H](NC(=O)[C@@H](NC(=O)[C@H](CC(N)=O)NC(=O)[C@H](CCSC)NC(=O)[C@H](CC(C)C)NC(=O)CN)[C@@H](C)O)C(C)C)C(C)C)[C@@H](C)O)C(C)C)[C@@H](C)O)C(C)C)C(=O)N[C@@H](CCCCN)C(=O)N[C@H]1CSSC[C@@H](C(=O)O)NC(=O)CNC(=O)CNC(=O)[C@H]([C@@H](C)O)NC(=O)[C@H](Cc2ccccc2)NC(=O)[C@H](CCCCN)NC1=O [ranatuerin-2P-OG1] (H-GLMNTVLNVLTNVAGTVKDKIKCKFTGGC-OH; disulfide 23-29)
minimum inhibitory concentration (MIC), Candida albicans [6]: 512 µg/mL (≈ 169 µM) | minimum inhibitory concentration (MIC), Enterococcus faecalis ([2]; ATCC 29212): 256 µg/mL (≈ 84.7 µM) | minimum inhibitory concentration (MIC), MRSA ([3]; methicillin-resistant CIB 8546): 64 µg/mL (≈ 21.2 µM) | minimum inhibitory concentration (MIC), Staphylococcus aureus ([4]; ATCC 29213): 64 µg/mL (≈ 21.2 µM) | minimum inhibitory concentration (MIC), Escherichia coli ([5]; ATCC 25922): 128 µg/mL (≈ 42.3 µM)

AALKGCWTKSIPPKPCFGKR [odorranain-B1]
Functional effect: trypsin inhibitor (trypsin): trypsin inhibitor

APFRMGICTTN [odorregulin-E1]
Functional effect: wound-healing (skin wound): wound-healing

ATAWDFGPHGLLPIRPIRIRPLCG [odorranain-M1]
Functional effect: wound-healing (skin wound): wound-healing

AVNIPFKVHFRCKAAFC (disulfide 12-17 (inferred)) [OGTI, FSAP family mature peptide identified via LC-MS/MS in O. grahami skin secretion]
Functional effect: trypsin inhibitor (trypsin): trypsin inhibitor

GLFGKILGVGKKVLCGLSGMC (disulfide 15-21 (inferred)) [nigrocin-2GRb, FSAP family mature peptide identified via LC-MS/MS in O. grahami skin secretion]
Functional effect: inhibits NO release (NO release): inhibits NO release

GLGGAKKNFIIAANKTAPQSVKKTFSCKLYNG [odorranain-E1]
Functional effect: inhibits NO release (NO release): inhibits NO release

RPPGFTPFR [Thr6-bradykinin]
Functional effect: myotropic activities [7]: myotropic activities

RPPGLTPFR [Leu5Thr6-bradykinin]
Functional effect: myotropic activities [7]: myotropic activities

YASPKCFRYPNGVLACT [odorranalectin]
Functional effect: lectin [7]: lectin

bombesin
In vitro wound healing potential (HaCat cells): in vitro wound healing potential

From paper PMC12664280, “Integrative transcriptomics and peptidomics approach reveals unexpectedly diverse endogenous secretory peptides in Odorrana grahami frog skin” (BMC Biology, 2025)
